From US5654299A, “Aryl substituted heterocycles” (Zeneca Limited, priority 1993, dated 1997)
Where “and” joins values, the source holds several entries; their conditions need not be identical. Equal entries are not always repeated. Structures can show the parent of a compound that is named as a salt. Where two headings read alike, the source gives them in different places.

Key:
human NK2 receptor = molecular target: T1, human NK2 receptor (Homo sapiens, UniProt P21452); experiment: Neurokinin A (NKA) Receptor-binding Assay (Test A), 3H-NKA binding to MEL cell membranes (MELM)
T1 sequence (P21452 1-398): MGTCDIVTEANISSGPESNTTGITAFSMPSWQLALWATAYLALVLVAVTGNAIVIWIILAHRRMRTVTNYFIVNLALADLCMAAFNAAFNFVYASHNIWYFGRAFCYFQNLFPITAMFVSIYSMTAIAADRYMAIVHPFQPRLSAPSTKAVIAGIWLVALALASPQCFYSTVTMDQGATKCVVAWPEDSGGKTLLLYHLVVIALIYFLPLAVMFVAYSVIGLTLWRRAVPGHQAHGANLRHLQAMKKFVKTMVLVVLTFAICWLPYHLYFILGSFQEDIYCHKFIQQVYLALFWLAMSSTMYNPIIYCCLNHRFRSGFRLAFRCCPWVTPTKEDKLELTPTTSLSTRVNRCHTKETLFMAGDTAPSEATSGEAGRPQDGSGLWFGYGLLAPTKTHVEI
Procedure: MEL C88 cells (A. Deisseroth et al., Cell (1978) 1-5, 55-63) were electroporated (M. Antoniou, Methods Molecular Biology (1991) 7, 421-434) with PvuI linearized pGSE1417/human NK2 receptor DNA. Directly after transfection, cells were diluted in culture medium to 10^4 and 10^5 cell per mL and 1 mL aliquots transferred to each well of a 24-well plate. G418 was added to a concentration of 1 mg/mL 24 hours after the transfection to select for stable transfectants. Individual clones were picked or pooled to generate populations seven to ten days after the addition of selective medium. […] Samples were taken 4 days post induction for mRNA and NKA binding analyses.
Membrane preparations (MELM) prepared from the MEL cells containing high-affinity NK2 receptors were prepared according to a published protocol (D. Aharony, et al., Neuropeptides (1992) 23, 121-130) with the following minor modifications: (1) Iodoacetamide (1 mM) was included in the homogenization buffer; (2) Homogenization was as published but for a shorter period of 10 seconds once and at a slower speed (setting 10); and (3) The equilibration step with KCl/EDTA was not performed.

guinea pig trachea = molecular target: T2, guinea pig trachea (Cavia porcellus, UniProt Q64077); experiment: Guinea Pig Trachea Assay (Test B), antagonism of NKA or [β-ala^8]-NKA(4-10); assay type: cell-based; details: for Kb: guinea pig trachea, apparent dissociation constant, -log molar KB
T2 sequence (Q64077 1-402): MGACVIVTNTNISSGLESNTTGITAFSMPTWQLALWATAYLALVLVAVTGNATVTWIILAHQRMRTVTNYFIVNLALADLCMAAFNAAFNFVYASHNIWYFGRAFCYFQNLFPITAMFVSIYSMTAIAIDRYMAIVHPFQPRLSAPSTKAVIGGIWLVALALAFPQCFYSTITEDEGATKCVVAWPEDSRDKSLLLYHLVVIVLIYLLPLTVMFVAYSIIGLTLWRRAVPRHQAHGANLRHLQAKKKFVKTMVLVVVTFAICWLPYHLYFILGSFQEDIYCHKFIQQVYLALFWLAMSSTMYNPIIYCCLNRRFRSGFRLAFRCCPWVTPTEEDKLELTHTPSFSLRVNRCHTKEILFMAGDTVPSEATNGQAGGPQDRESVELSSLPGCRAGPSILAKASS
Procedure: In the test described below either NKA or [β-ala^8 ]-NKA(4-10) is used as an agonist. The chosen agonist is referred to as AG throughout the description.
Male guinea pigs are killed by a sharp blow to the back of the head. The trachea are removed, trimmed of excess tissue and divided into two segments. Each segment is suspended as a ring between stainless steel stirrups in water-jacketed (37.5° C.) tissue baths containing a physiological salt solution of the following composition (mM): NaCl, 119; KCl 4.6; CaCl2, 1.8; MgCl2, 0.5; NaH2 PO4, 1; NaHCO3, 25; glucose, 11; thiorphan, 0.001; and indomethacin, 0.005; gassed continuously with 95% O2 -%5 CO2. Initial tension placed on each tissue is 1 g, which is maintained throughout a 0.5 to 1.5 hour equilibration period before addition of other drugs. Contractile responses are measured on a Grass polygraph via Grass FT-03 force transducers.
Tissues are challenged repetitively with a single concentration of AG (10 nM) with intervening 30 min periods with washing to allow the tension to return to baseline levels. The magnitude of the contractions to AG reaches a constant level after two challenges, and each Compound is tested for inhibition of responses to AG by addition to the tissue bath 15 minute before the third or subsequent exposure to the agonist. The contractile response to AG in the presence of Compound is compared to that obtained with the second AG challenge (in the absence of Compound). Percent inhibition is determined when a Compound produces a statistically significant (p<0.05) reduction of the contraction and is calculated using the second contractile response as 100%.
Potencies of selected Compounds are evaluated by calculating apparent dissociation constants (KB) for each concentration tested using the standard equation:
KB =[antagonist]/(dose ratio-1)
where dose ratio=antilog[(AG -log molar EC50 without Compound)-(AG -log molar EC50 with Compound)]. The KB values may be converted to the negative logarithms and expressed as -log molar KB (i.e. pKB). For this evaluation, complete concentration-response curves for AG are obtained in the absence and presence of Compound (30 min incubation period) using paired tracheal rings. The potency of AG is determined at 50% of its own maximum response level in each curve. The EC50 values are converted to the negative logarithms and expressed as -log molar EC50. Maximum contractile responses to AG are determined by expressing the maximum response to AG as a percentage of the contraction caused by carbachol (30 μM), added after the initial equilibration period. When a statistically significant (p<0.05) reduction of the maximum response to AG is produced by a compound, the percent inhibition is calculated relative to the percentage of carbachol contraction in the untreated, paired tissue used as 100%.

NK2 receptor = experiment: Guinea Pig Labored Abdominal Breathing (Dyspnea) Assay (Test C), [β-ala^8]-NKA(4-10) aerosol; assay type: in vivo; details: 5 μmol/kg p.o., 120 min prior
Procedure: Guinea Pig Labored Abdominal Breathing (Dyspnea) Assay (Test C)
Using the clear plastic chamber described previously by Snyder et al. to secure guinea pigs for a head-only aerosol exposure to bronchoconstrictor agonists, agonist is administered by aerosol to six conscious guinea pigs simultaneously during each maneuver. The tachykinin NK2-selective agonist, [β-ala^8 ]-NKA(4-10), 3×10^-5 M, is aerosolized from a Devilhiss Model 25 ultrasonic nebulizer into an air stream entering the chamber at a rate of 2 L/minute.
Guinea pigs (275-400 g) are fasted for approximately 16 hours prior to experimentation. Compounds to be evaluated for blockade of effects of [β-ala^8 ]-NKA(4-10) or their vehicle (10% PEG400 in saline) are administered p.o. or i.v. at various times before aerosol agonist challenge. All animals are pretreated with atropine (10 mg/kg, i.p., 45 minutes pretreatment) indomethacin (10 mg/kg, i.p., 30 minutes pretreatment), propranolol (5 mg/kg, i.p., 30 minutes pretreatment), and thiorphan (1 mg/ml aerosol for 5 minutes, 15 minutes pretreatment).
Aerosol challenge with the agonist produces an initial increase in respiratory rate followed by a decrease with early signs of minor involvement of the abdominal muscles. The respiratory rate decreases further and the breathing becomes more labored with greater involvement of the abdominal muscles as exposure continues. The distinctly recognizable end point is the point where the breathing pattern of the guinea pig is consistently slow, deep, and deliberate, showing marked involvement of the abdominal muscles. Time, in seconds, from the onset of aerosol challenge to this end point is determined for each animal by using a stopwatch. […] Antagonists result in an increase in the time to reach the end point. Animals receive the aerosol administration of agonist for a maximum time of 780 seconds.
Differences between drug treated groups and corresponding vehicle treated control groups are compared using Student's t-test for unpaired observations.

[1] = test system: NKA receptor from rat duodenum membranes; details: Edmonds-Alt (1993), cited from earlier work; for Ki: rat duodenum membranes, read-out: inhibition constant (Ki), [125I]-NKA binding
neurokinin receptors = details: EPA 559538; cited from earlier work
[2] = read-out: pKB (Test B) (converted)

CN(CC(CCN1CC[C@H](c2ccccc2)[C@@H](O)C1)c1ccc(Cl)c(Cl)c1)C(=O)c1ccccc1 (relative stereo) [Example 10, N-[2-(3,4-Dichlorophenyl)-4-[(3R*,4R*)-3-hydroxy-4-phenylpiperidino]butyl-N-methylbenzamide hydrochloride]
Ki (human NK2 receptor; read-out: Ki (Test A)): 13 nM | Kb (guinea pig trachea; [2]): 10 nM

CN(CC(CCN1CCC(c2ccccc2)CC1)c1ccc(Cl)c(Cl)c1)C(=O)c1ccccc1.Cl (centres unmarked) [Example 1, N-[2-(3,4-Dichlorophenyl)-4-(4-phenylpiperidino)butyl]-N-methylbenzamide hydrochloride]
NK2 antagonism in words, Test A (human NK2 receptor; in vitro screen Test A): potent NK2 antagonist | Ki (human NK2 receptor; read-out: Ki (Test A)): 2.6 nM | NK2 antagonism in words, Test B (guinea pig trachea; functional assay Test B): potent NK2 antagonist | Kb (guinea pig trachea; [2]): 10 nM and 6.31 nM | number fully protected/total number tested (Test C) (NK2 receptor): 0/6 | percent protection (Test C) (NK2 receptor): 17% | biological activity of the benzamide in words [1]: lack of biological activity | Ki [1]: > 100 nM

COc1ccccc1C1CCN(CCC(CN(C)C(=O)c2ccccc2)c2ccc(Cl)c(Cl)c2)CC1 (centres unmarked) [Example 2, N-[2-(3,4-Dichlorophenyl)-4-[4-(2-methoxyphenyl)piperidino]butyl]-N-methylbenzamide hydrochloride]
Ki (human NK2 receptor; read-out: Ki (Test A)): 9 nM | Kb (guinea pig trachea; [2]): 5.01 nM

CN(CC(CCN1CCC(c2ccccc2O)CC1)c1ccc(Cl)c(Cl)c1)C(=O)c1ccccc1 (centres unmarked) [Example 6, N-[2-(3,4-Dichlorophenyl)-4-[4-(2-hydroxyphenyl)piperidino]butyl]-N-methylbenzamide hydrochloride]
Ki (human NK2 receptor; read-out: Ki (Test A)): 2.8 nM | Kb (guinea pig trachea; [2]): 3.16 nM

Cc1nnc(C2CCN(CCC(CN(C)C(=O)c3ccccc3)c3ccc(Cl)c(Cl)c3)CC2)o1 (centres unmarked) [Example 7, N-[2-(3,4-Dichlorophenyl)-4-[4-(5-methyl-1,3,4-oxadiazol-2-yl)piperidino]butyl]-N-methylbenzamide hydrochloride]
Ki (human NK2 receptor; read-out: Ki (Test A)): 21.1 nM | Kb (guinea pig trachea; [2]): 79.4 nM

CN(C[C@@H](CCN1CCC(c2cccnc2)CC1)c1ccc(Cl)c(Cl)c1)C(=O)c1ccccc1.Cl [Example 9, (S)-N-[2-(3,4-Dichlorophenyl)-4-[4-(3-pyridyl)piperidino]butyl]-N-methylbenzamide hydrochloride]
Ki (human NK2 receptor; read-out: Ki (Test A)): 2 nM | Kb (guinea pig trachea; [2]): 2.51 nM | number fully protected/total number tested (Test C) (NK2 receptor): 5/6 | percent protection (Test C) (NK2 receptor): 90%

CSc1ccccc1C1CCN(CCC(CN(C)C(=O)c2ccccc2)c2ccc(Cl)c(Cl)c2)CC1.Cl (centres unmarked) [Example 13, N-[2-(3,4-Dichlorophenyl)-4-[4-(2-methylthiophenyl)-piperidino]butyl]-N-methylbenzamide hydrochloride]
Ki (human NK2 receptor; read-out: Ki (Test A)): 3 nM | Kb (guinea pig trachea; [2]): 2.51 nM | number fully protected/total number tested (Test C) (NK2 receptor): 3/6 | percent protection (Test C) (NK2 receptor): 78%

CN(C[C@@H](CCN1CCC(c2ccccc2[S+](C)[O-])CC1)c1ccc(Cl)c(Cl)c1)C(=O)c1ccccc1.Cl (stereo partly drawn) [Example 14, (S)-N-[2-(3,4-Dichlorophenyl)-4-[4-(2-methylsulfinylphenyl)piperidino]butyl]-N-methylbenzamide hydrochloride]
Ki (human NK2 receptor; read-out: Ki (Test A)): 0.3 nM | Kb (guinea pig trachea; [2]): 0.316 nM | number fully protected/total number tested (Test C) (NK2 receptor): 8/8 | percent protection (Test C) (NK2 receptor): 100%

CSc1ccc(C2CCN(CC[C@H](CN(C)C(=O)c3ccccc3)c3ccc(Cl)c(Cl)c3)CC2)cc1.Cl [Example 15, (S)-N-[2-(3,4-Dichlorophenyl)-4-[4-(4-methylthiophenyl)piperidino]butyl]-N-methylbenzamide hydrochloride]
Ki (human NK2 receptor; read-out: Ki (Test A)): 2 nM | Kb (guinea pig trachea; [2]): 2 nM | number fully protected/total number tested (Test C) (NK2 receptor): 6/6 | percent protection (Test C) (NK2 receptor): 100%

CN(C[C@@H](CCN1CCC(c2ccc([S+](C)[O-])cc2)CC1)c1ccc(Cl)c(Cl)c1)C(=O)c1ccccc1.Cl (stereo partly drawn) [Example 16, (S)-N-[2-(3,4-Dichlorophenyl)-4-[4-(4-methylsulfinylphenyl)piperidino]butyl]-N-methylbenzamide hydrochloride]
Ki (human NK2 receptor; read-out: Ki (Test A)): 0.6 nM | Kb (guinea pig trachea; [2]): 6.31 nM | number fully protected/total number tested (Test C) (NK2 receptor): 5/6 | percent protection (Test C) (NK2 receptor): 88%

CN(CC(CCN1CCC2(CC1)OC(=O)c1ccccc12)c1ccc(Cl)c(Cl)c1)C(=O)c1ccccc1 (centres unmarked) [Example 24, N-[2-(3,4-Dichlorophenyl)-4-(3-oxospiro[isobenzofuran-1(3H),4'-piperidin]-1'-yl)butyl]-N-methylbenzamide hydrochloride]
Ki (human NK2 receptor): 3.5 nM | Kb (guinea pig trachea; pKB (Test B)): 6.31 nM

CN(C[C@@H](CCN1CCC(c2ccccn2)CC1)c1ccc(Cl)c(Cl)c1)C(=O)c1ccccc1.Cl [Example 27, (S)-N-[2-(3,4-Dichlorophenyl)-4-[4-(2-pyridyl)piperidino]butyl]-N-methylbenzamide hydrochloride]
Ki (human NK2 receptor; read-out: Ki (Test A)): 2 nM | Kb (guinea pig trachea; [2]): 12.6 nM | number fully protected/total number tested (Test C) (NK2 receptor): 2/6 | percent protection (Test C) (NK2 receptor): 54%

CC(C)Oc1cccc(CC(=O)N(C)CC(CCN2CCC(c3ccccc3)CC2)c2ccc(Cl)c(Cl)c2)c1 (centres unmarked) [N-[2-(3,4-dichlorophenyl)-4-(4-phenylpiperidino)butyl]-N-methyl-3-isopropoxyphenylacetamide]
affinity for neurokinin receptors (neurokinin receptors): high affinity

CC(=O)NC1(c2ccccc2)CCN(CC[C@H](CN(C)C(=O)c2ccccc2)c2ccc(Cl)c(Cl)c2)CC1 [SR 48968, N-[4-(4-acetylamino-4-phenylpiperidino)-2-(3,4-dichlorophenyl)butyl]-N-methylbenzamide, reference compound]
Ki [1]: 0.5 nM
